Experimental findings from patent publication US6888003B2, “Method for producing 7-(pyrazole-3-yl) benzoxazoles” (BASF Aktiengesellschaft, priority 2000, dated 2005) are described below.

What all share (test): Greenhouse herbicidal post-emergence test
The test system of assay [1] is CHEAL. The class given is in vivo, lamb's-quarters. To be noted: application rate 31.3 g/ha. The text has this:
(§1) The culture containers used were plastic pots containing loamy sand with approximately 3.0% of humus as the substrate. The seeds of the test plants were sown separately for each species. For the post-emergence treatment, the test plants were first grown to a height of 3 to 15 cm, depending on the plant form, and only then treated with the active compounds which had been suspended or emulsified in water. For this purpose, the test plants were either sown directly and grown in the same containers, or they were first grown separately as seedlings and transplanted into the test containers a few days prior to treatment. The application rate for the post-emergence treatment was 31.3 g of a.s./ha. Depending on the species, the plants were kept at 10-25° C. or 20-35° C. The test period extended over 2 to 4 weeks. During this time, the plants were tended, and their response to the individual treatments was evaluated. The evaluation was carried out using a scale from 0 to 100. 100 means no emergence of the plants, or complete destruction of at least the above-ground parts, and 0 means no damage, or normal course of growth. The plants used in the greenhouse experiments were composed of the following species: [table]

Assay [2] concerns BRAPL. The class given is in vivo, marmalade grass.
From the text: as §1, with “The application rate for the post-emergence treatment was 31.3 g of a.s./ha.” left out

Assay [3] has as its system AMARE. It is filed as in vivo, velvet leaf. The settings on record: application rate 31.3 g/ha.
From the text: as §1

Assay [4] relates to SETFA. The class given is in vivo, giant foxtail.
From the text: as §1, with “The application rate for the post-emergence treatment was 31.3 g of a.s./ha.” left out

For `Cn1nc(-c2c(F)cc(Cl)c(N)c2Br)c(Cl)c1OC(F)F` [IVa.1, 2-bromo-4-fluoro-6-chloro-3-(4-chloro-5-difluoromethoxy-1-methyl-1H-pyrazol-3-yl)aniline], the “herbicidal post-emergence activity against CHEAL” value in assay [1] is reported as “very good”. Also, the “herbicidal post-emergence activity against BRAPL” value in assay [2] (application rate 15.6 g/ha) and in assay [2] (application rate 31.3 g/ha) was “very good” in each case. Further, the “herbicidal post-emergence activity against AMARE” value in assay [3] is listed as “very good”. In addition, the “herbicidal post-emergence activity against SETFA” value in assay [4] (application rate 15.6 g/ha) is “very good to good”; in assay [4] (application rate 31.3 g/ha), “very good”.
